Laboratory results taken from US12161763B2, “Formulation and method for increasing oral bioavailability of drugs” (Yissum Research Development Company of the Hebrew …, priority 2012, dated 2024).
Several values for one entry are separate records, joined by “and”; a condition that tells them apart may be missing. Identical values can stand only once. Counter-ions that a name gives are not always drawn.

Columns and labels:
Male Wistar rats = test: AM pharmacodynamic study: heart rate and IBI by radiotelemetry; type: in vivo; conditions: 12.5 mg/kg AM PO
Experimental: The deferential effect of AM on heart rate was used as a pharmacodynamic marker for assessment of AM pharmacological effect following oral administration.
Male Wistar rats (Harlan, Israel) weighing 300-350 g were kept under a 12 h light/dark cycle with free access to water and food (standard rat chow) Animals were anesthetized for the period of surgery by intraperitoneal injection of 1 mL/kg of ketamine-xylazine solution (90/10%, respectively).
An ECG transmitter (TA11CA-F40, Data Sciences International Inc., St. Paul, MN) was implanted subcutaneously over the scapula with the leads in a Lead 2 configuration by tunneling subcutaneously from the dorsal incision using a trocar. The negative lead was placed in the area of the right shoulder and the positive lead was placed immediately to the left of the xyphoid space and caudal to the rib cage.
The signal from the transmitters was received by two RLA 2000 receivers and transmitted via a Data Exchange Matrix to a Dataquest PCI card. The data were recorded continuously during the whole experiment at 1000 Hz rate with no filter cutoff and full scale at 10 mV.
The collected data were interpreted by Dataquest A.R.T program. The IBI (R-R duration, sec) and HR (bpm) were calculated in average values of each 10 min of the recording.
At the beginning the baseline were recorded at least for 120 min. After establishing stable recording the rats were treated by oral gavage. During the treatment the data was collected and afterwards extracted in further analysis.
Two groups of three rats received the treatment in a cross over manner, meaning each rat received each treatment once. The treatments were as follows:
Blank nano-lipospheres not containing AM was freshly prepared as described above and was administered by oral gavage. […] .
In order to inspect separately the effect of each delivery method, we first calculated the mean baseline IBI duration throughout 60 min prior the administration. The drug was administered at t=60 min Post administration the data was calculated throughout 180 min. The net change was calculated as the percentage of the change for each drug administration mode relative to the baseline recording. The changes from base-line in two parameters: IBI and HR were analyzed in two points: 90 min. post administration (mid phase) and 180 min post administration (end phase) (Tables 9A-B and 10A-B, respectively).

[1] = Compatibility of BCS class II and IV drugs with the piperine-PNL pre-concentrate; type: physicochemical
From the text: In order to determine the compatibility of the developed PNL delivery system with various lipophilic drugs, we have tested the ability of the piperine-PNL to dissolve various BCS class II and IV drugs.

[2] = CBD relative oral bioavailability: CBD, CBD-PNL and CBD-PNL with absorption enhancers; conditions: male, Wistar, rat, in vivo; PO CBD 15 mg/kg; Piperine 10 mg/kg, rats; mean ± S.E.M.
Experimental: The obtained CBD and piperine concentrations were 3 mg/mL and 2 mg/ml, respectively. […] The control groups received (15 mg/kg) CBD solution in propylene glycol/EthOH/water 30/30/40 respectively (1 mg/mL) (n=6) or CBD-PNL ((15 mg/kg of CBD).

[3] = CBD nano lipospheres relative oral bioavailability study; type: in vivo; conditions: male, Wistar, rat, plasma; PO 15 mg/kg CBD, rats
Experimental: The obtained CBD concentration was 3 mg/mL. […] The control group received (15 mg/kg) CBD solution in propylene glycol/EthOH/water 30/30/40 respectively (1 mg/mL) (n=6).

[4] = Talinolol relative oral bioavailability study; type: in vivo; conditions: male, Wistar, rat, plasma; PO 4 mg/kg talinolol, rats
Experimental: The obtained talinolol concentration was 1 mg/mL. […] The control group received 4 mg/kg talinolol dissolved in PEG400:water:ethanol 25:60:15 to obtain 1 mg/mL concentration (n=6).

[5] = Absorption enhancer pro-nano-liposphere development: dissolution in pre-concentrate and precipitation on dilution with water; type: physicochemical; conditions: for precipitation of the absorption enhancer upon dilution with water phase: curcumin 1% and 2%, resveratrol, piperine 2%
Experimental: The development of each of the formulations, in terms of a selection of the different components, was conducted by the following method. A combination of certain components was used as a reference starting point (as per Table 16). The choice of these certain triglyceride, organic amphiphilic co-solvent and the combination of surfactants in the detailed portions in Table 16 was based on the inventors' previous experience with various lipophilic drugs. Thus, an absorption enhancer was added to this specified prototype formulation to form a pre-concentrate.

[6] = Tacrolimus oral bioavailability study; type: in vivo, Male Wistar rats
CYP3A4 = conditions: 120 min incubation in isolated rat microsomes
[7] = 90 min post administration, HCl
[8] = 180 min post administration, HCl

With `CCCCc1oc2ccccc2c1C(=O)c1cc(I)c(OCCN(CC)CC)c(I)c1` [AM, Amiodarone HCl] the “HEART RATE (BPM) MID PHASE” value (Male Wistar rats; 90 min post administration) was 452.916 ± 20.01 BPM, the “IBI (sec) MID PHASE” value (Male Wistar rats; 90 min post administration) was 0.1435 ± 0.008 s and the “HEART RATE CHANGE % (percentage from baseline), mid phase” value (Male Wistar rats; [7]) was 131.28% and 131.28 (*) %. The “IBI CHANGE % (percentage from baseline), mid phase” value (Male Wistar rats; [7]) was 88.86% and 88.86 (*) %, the “IBI (sec) END PHASE” value (Male Wistar rats; 180 min post administration) was 0.143 ± 0.007 s and the “HEART RATE (BPM) END PHASE” value (Male Wistar rats; [8]) was 443.071 ± 11.06 BPM and 443.07 ± 11.06 BPM. The “HEART RATE CHANGE % (percentage from baseline), end phase” value (Male Wistar rats; [8]) was 128.43% and 128.43 (*) %, the “IBI CHANGE % (percentage from baseline), end phase” value (Male Wistar rats; [8]) was 89.79% and 89.79 (*) % and the “heart rate following administration” value (Male Wistar rats; phase not given) was 452.916±20.01 BPM. For the same compound, the “mean IBI following administration” value (Male Wistar rats; phase not given) was 0.143 ± 0.0074 s.
For `C[C@@H]1[C@H](O)[C@@H](C)/C=C/C=C/C=C/C=C/C=C/C=C/C=C/[C@H](O[C@@H]2O[C@H](C)[C@@H](O)[C@H](N)[C@@H]2O)C[C@@H]2O[C@](O)(C[C@@H](O)C[C@@H](O)[C@H](O)CC[C@@H](O)C[C@@H](O)CC(=O)O[C@H]1C)C[C@H](O)[C@H]2C(=O)O` [Amphotericin B], the “compatibility with the pre-concentrate” value [1] was “incompatible”.
`C=C(C)[C@@H]1CCC(C)=C[C@H]1c1c(O)cc(CCCCC)cc1O` [CBD, Cannabidiol] showed an AUC [2] of 90 ± 21 ng·h/mL, a Cmax [2] of 39 ± 8 ng/mL and an AUC [3] of 259 ng·h/mL. For the same compound, the Cmax [3] was 105 ± 103 ng/mL.
`CC(C)(C)NCC(O)COc1ccc(NC(=O)NC2CCCCC2)cc1` (stereo not drawn) [Talinolol, talinolol] gave an AUC [4] of 11.9 ng·h/mL, a Cmax [4] of 5.55 ± 1.65 ng/mL and a half-life [4] of 1.15 ± 0.19 h.
In the case of `COc1cc(/C=C/C(=O)CC(=O)/C=C/c2ccc(O)c(OC)c2)ccc1O` [curcumin], the “precipitation of the absorption enhancer upon dilution with water phase” value [5] is reported as “precipitation”.
With `Oc1ccc(C=Cc2cc(O)cc(O)c2)cc1` [resveratrol] the “dissolution of the absorption enhancer in the pre-concentrate / appearance of pre-concentrate” value [5] was “homogeneous and visually clear pre-concentrate” and the “precipitation of the absorption enhancer upon dilution with water phase” value [5] was “No precipitation”.
With `C=CC[C@@H]1/C=C(\C)C[C@H](C)C[C@H](OC)[C@H]2O[C@@](O)(C(=O)C(=O)N3CCCC[C@H]3C(=O)O[C@H](/C(C)=C/[C@@H]3CC[C@@H](O)[C@H](OC)C3)[C@H](C)[C@@H](O)CC1=O)[C@H](C)C[C@@H]2OC` [tacrolimus] the “Coefficient of variation (% CV) of plasma tacrolimus concentrations” value ([6]; 0.25 h after PO 1 mg/kg) was 95.1%, the “Coefficient of variation (% CV) of plasma tacrolimus concentrations” value ([6]; 0.5 h after PO 1 mg/kg) was 90.8% and the “Coefficient of variation (% CV) of plasma tacrolimus concentrations” value ([6]; 0.75 h after PO 1 mg/kg) was 73.2%. The “Coefficient of variation (% CV) of plasma tacrolimus concentrations” value ([6]; 1 h after PO 1 mg/kg) was 83.5% and the “Coefficient of variation (% CV) of plasma tacrolimus concentrations” value ([6]; 2 h after PO 1 mg/kg) was 103.5%.
With `C[C@]12CC[C@H]3[C@@H](CCC4=CC(=O)CC[C@@]43C)[C@@H]1CC[C@@H]2O` [testosterone] the testosterone remaining (CYP3A4) was 75.39±8.82%.
